In US4347254A, “Tricyclic cage compounds, their synthesis and use as antiviral agents” (Sumitomo Chemical Company, Limited, priority 1978, dated 1982):
Values joined by “and” are separate entries in the source; they are usually repeats but may differ in a detail not shown here. Equal entries are not always repeated. Where two headings read alike, the source gives them in different places.

How the values were obtained:
[1] = Acute toxicity: mortality after subcutaneous injection; type: in vivo, male dd-strain mice; set-up: key to appearance of hyperactivity / clonic convulsion: ±: appearance of hyperactivity; +: appearance of clonic convulsion; settings: mice
Experimental: Six male dd-strain mice, weighing 25±3 g, were used in each group. Test drugs were injected subcutaneously (0.2 ml/10 g).
Mortality at the 3rd day after subcutaneous injection:-
^(*1) Number of deaths/Number of animals used.

[2] = system: catalepsy induced by haloperidol; assay: Effects on the catalepsy induced by haloperidol (anti-catalepsy activity); type: in vivo, male dd-strain mice; settings: for Number of showing anti-catalepty activity/Number of total animal: 0.5 hour after test drug, haloperidol 7 mg/kg s.c., hydrochloride
Experimental: Pharmcol., 22, 546-547 (1970)" or "J. May et al., Psychopharmcol., 24, 296-307 (1972)".
Effects on the catalepsy induced by haloperidol:
Six male dd-strain mice, weighing 25±3 g, were used in each group. Test drugs were injected intraperitoneally or subcutaneously 3.5 hours after the injection of haloperidol (7 mg/kg, s.c.).
The catalepsy was measured at 0.5 hour after injection of test drugs according to the method of Wirth et al. with slight modification [cf. Wirth, R., Gosswald, R., Horlein, V., Risse, K. H. and Kreiskott, H. Archs int. Pharmacodyn., Ther., 115, 1-31 (1958)].

[3] = system: Influenza A/PR/8/34 (HO,Nl) strain; assay: microbe, parasite or virus in culture; type: cell-based, Influenza A virus; settings: for minimal effective concentration: Influenza A virus, PR/8, 72 h, 34° C., 3 days, read-out: MEC (minimum effective concentration); for Chemotherapeutic index (MCC/MEC): 4320 min
[4] = Cytotoxicity in host cells by microscopic examination and retardation of cell growth rate; type: cell-based; settings: dog; MDCK cells; hydrochloride; read-out: MCC (minimum cytotoxic concentration)
Experimental: Virus (Influenza A/PR/8/34 (HO,Nl) strain) and cell culture (MDCK cells) were used in this study and were grown in Earle-based Eagle-MEM containing 2.5 mg/ml of NaHCO3 and 10% fetal calf serum. Maintenance medium was Eagle's MEM containing 2.5 mg/ml NaHCO3, 0.1% bovine serum albumin and 20 μg/ml Tnypsin.
After washing MDCK Cell monolayers with PBS(-), maintenance medium containing 10^3 TCID50 of virus the drug was added to each culture tube and these tubes were then incubated at 34° C. for 3 days.
Antiviral effects and cytotoxicities of the test compounds were tested against influenza virus by the tube dilution assay.
Cytotoxicity was determined by microscopic examination and retardation of cell growth rate of host cell, and represented by minimum cytotoxicic concentration (MCC, μg/ml).

[5] = system: Influenza A/PR/8/34 (HO,Nl) strain; type: in vivo, Influenza A virus; ICR male mice; settings: for LLS (lung lesion score): score 0-5, control 4.7; for efficacy compared with amantadine: as indicated in Table III
[6] = system: central nervous system (CNS); settings: known drug; cited from earlier work
[7] = 1000 mg/kg s.c., hydrochloride (29-1: not hydrochloride)
[8] = hydrochloride (29-1: not hydrochloride)

| SMILES | Number of showing anti-catalepty activity/Number of total animal ([2]; 500 mg/kg s.c.) | minimal effective concentration ([3]; MDCK cells, hydrochloride) [µg/mL] | Chemotherapeutic index (MCC/MEC) ([3]; MDCK cells, hydrochloride) | MCC at 72 h [4] [µg/mL] | further results |
| --- | --- | --- | --- | --- | --- |
| N[C@@H]1[C@H]2CC[C@H]3[C@@H]1CO[C@H]3C2 (relative stereo) [Compound No. 12-4, 5-Oxa-endo-2-amino-isotwistane] | 0/6 | 50 | 2 | 100 | Mortality rate at the 3rd day after subcutaneous injection (Number of deaths/Number of animals used) ([1]; 2000 mg/kg s.c., hydrochloride): 0/6; appearance of hyperactivity / clonic convulsion ([1]; 2000 mg/kg s.c., hydrochloride): ± |
| N[C@H]1[C@H]2CC[C@H]3[C@@H]1CO[C@H]3C2 (relative stereo) [Compound No. 12-9, 5-Oxa-exo-2-amino-isotwistane] | – | 50 | 2 | 100 | – |
| CN[C@@H]1[C@H]2CC[C@H]3[C@@H]1CO[C@H]3C2 (relative stereo) [Compound No. 18-3, 5-Oxa-endo-2-N-methylamino-isotwistane] | 1/6 | 50 | > 4 | > 200 | appearance of hyperactivity / clonic convulsion ([1]; 1000 mg/kg s.c., hydrochloride): ±; Mortality rate at the 3rd day after subcutaneous injection (Number of deaths/Number of animals used) [1, 7]: 0/6 |
| NC[C@@H]1[C@H]2CC[C@H]3[C@@H]1CO[C@H]3C2 (relative stereo) [Compound No. 25-3, 5-Oxa-endo-2-aminomethyl-isotwistane] | 0/6 | 25 | 4 | 100 | Mortality rate at the 3rd day after subcutaneous injection (Number of deaths/Number of animals used) [1, 7]: 0/6 |
| NC[C@H]1[C@H]2CC[C@H]3[C@@H]1CO[C@H]3C2 (relative stereo) [Compound No. 67-1, exo-2-aminomethyl-5-oxa-isotwistane] | – | 25 | 4 | 100 | – |
| NC12CC3CC(CC(C3)C1)C2 [Amantadine, reference compound] | – | 12.5 | – | 12.5 | Mortality rate at the 3rd day after subcutaneous injection (Number of deaths/Number of animals used) ([1]; 300 mg/kg s.c., hydrochloride): 6/6; Number of showing anti-catalepty activity/Number of total animal ([2]; 50 mg/kg s.c.): 3/6 and 2/6; antagonism of the catalepsy (in words), amantadine ([2]; at 50 mg/kg): antagonizes the catalepsy at 50 mg/kg; LLS (lung lesion score) ([5]; hydrochloride): 4.3; Chemotherapeutic index (MCC/MEC) ([3]; mdck): 1; CNS-effects (in words), amantadine [6]: strong effects on a central nervous system (CNS) |
| NC12COC3CC(CCC31)C2 (stereo not drawn) [Compound No. 12-3, 5-Oxa-3-amino-isotwistane] | 2/6 | 50 | 2 | 100 | Mortality rate at the 3rd day after subcutaneous injection (Number of deaths/Number of animals used) ([1]; 705 mg/kg s.c., hydrochloride): 0/6; appearance of hyperactivity / clonic convulsion ([1]; 705 mg/kg s.c., hydrochloride): ±; LLS (lung lesion score) [5, 8]: 3.6; efficacy compared with amantadine [5]: comparable to that of amantadine |
| NCC1C2CCC3C(COC13)C2 (stereo not drawn) [Compound No. 12-10] | – | 25 | 4 | 100 | – |
| CNC12COC3CC(CCC31)C2 (stereo not drawn) [Compound No. 18-2, 5-Oxa-3-N-methylamino-isotwistane] | – | 50 | > 4 | > 200 | Mortality rate at the 3rd day after subcutaneous injection (Number of deaths/Number of animals used) ([1]; 500 mg/kg s.c., hydrochloride): 0/6; appearance of hyperactivity / clonic convulsion ([1]; 500 mg/kg s.c., hydrochloride): ±; Number of showing anti-catalepty activity/Number of total animal ([2]; 250 mg/kg s.c.): 3/6 |
| NCC12COC3CC(CCC31)C2 (stereo not drawn) [Compound No. 27-2, 5-Oxa-3-aminomethyl-isotwistane] | 1/6 | 25 | 8 | 200 | Mortality rate at the 3rd day after subcutaneous injection (Number of deaths/Number of animals used) ([1]; 1190 mg/kg s.c., hydrochloride): 0/6; appearance of hyperactivity / clonic convulsion ([1]; 1190 mg/kg s.c., hydrochloride): ±; times as safe as amantadine (by chemotherapeutic index) ([3]; compared with amantadine): 8 times |
| NCCCC12COC3CC(CCC31)C2 (stereo not drawn) [Compound No. 27-4, 5-Oxa-3-(ω-amino-n-propyl)-isotwistane] | – | 25 | 4 | 100 | Mortality rate at the 3rd day after subcutaneous injection (Number of deaths/Number of animals used) ([1]; 250 mg/kg s.c., hydrochloride): 1/6; Mortality rate at the 3rd day after subcutaneous injection (Number of deaths/Number of animals used) ([1]; 500 mg/kg s.c., hydrochloride): 6/6 |
| COC(=O)C12COC3CC(CC31)C2 (stereo not drawn) [Compound No. 29-1, 5-oxa-3-methoxycarbonyl-brendane] | – | – | – | – | Mortality rate at the 3rd day after subcutaneous injection (Number of deaths/Number of animals used) [1, 7]: 0/6; LLS (lung lesion score) [5, 8]: 4.3; efficacy compared with amantadine [5]: comparable to that of amantadine |
| CN(C)CC12COC3CC(CCC31)C2 (stereo not drawn) [Compound No. 41-5, 5-Oxa-3-N,N-dimethylaminomethyl-isotwistane] | – | 50 | 2 | 100 | – |
| CC(N)C12COC3CC(CCC31)C2 (stereo not drawn) [Compound No. 44-1, 5-oxa-3-(α-aminoethyl)-isotwistane] | – | 25 | 2 | 50 | appearance of hyperactivity / clonic convulsion ([1]; 1000 mg/kg s.c., hydrochloride): ±; Mortality rate at the 3rd day after subcutaneous injection (Number of deaths/Number of animals used) [1, 7]: 0/6; Number of showing anti-catalepty activity/Number of total animal ([2]; 250 mg/kg s.c.): 1/6 |
| NC1C2CC3COC1C3C2 (stereo not drawn) [Compound No. 44-3, 2-Amino-4-oxa-brendane] | – | 50 | 2 | 100 | – |
| NC1C2CCC3C(COC13)C2 (stereo not drawn) [Compound No. 44-4, 2-Amino-4-oxa-isotwistane] | 0/6 | 100 | 1 | 100 | Mortality rate at the 3rd day after subcutaneous injection (Number of deaths/Number of animals used) [1, 7]: 0/6 |
| NCC12CSC3CC(CC31)C2 (stereo not drawn) [Compound No. 49-1, 5-thia-3-aminomethyl-brendane] | – | 25 | 2 | 50 | Mortality rate at the 3rd day after subcutaneous injection (Number of deaths/Number of animals used) ([1]; 250 mg/kg s.c., hydrochloride): 0/6; appearance of hyperactivity / clonic convulsion ([1]; 250 mg/kg s.c., hydrochloride): +; Number of showing anti-catalepty activity/Number of total animal ([2]; 125 mg/kg s.c.): 1/6 |
| NCC12CSC3CC(CCC31)C2 (stereo not drawn) [Compound No. 53-1] | – | 12.5 | 2 | 25 | Mortality rate at the 3rd day after subcutaneous injection (Number of deaths/Number of animals used) ([1]; 500 mg/kg s.c., hydrochloride): 3/6 |
